Data published in patent publication US20210154272A1, “NEUROMODULATING COMPOSITIONS AND RELATED THERAPEUTIC METHODS FOR THE TREATMENT OF CANCER BY MODULATING AN ANTI-CANCER IMMUNE RESPONSE” (Flagship Pioneering Innovations V, Inc., priority 2016, published 2021).

Key:
[1] = test system: Primary Natural Killer (NK) cells; experiment: NK cell ADCC assay with trastuzumab-coated Her2 expressing target cells; type: cell-based, human; conditions: for ADCC of NK cells treated with metaproterenol alone relative to NK cells pre-treated with this antagonist prior to the agonist: antagonist pre-treatment prior to metaproterenol
Description: Primary Natural Killer (NK) cells are isolated from human peripheral blood using a magnetic bead-based separation kit that negatively selects NK cells by sequestering other defined cell types (T, B, monocytes, etc.). Isolated NK cells are incubated with a target cell line, for example a Her2 expressing cancer cell line that has been pre-coated with trastuzumab, an anti-Her2 antibody, at a range of target-to-effector cell ratios. Following antibody-dependent cell cytotoxicity (ADCC)—antibody-mediated killing of the target cells by the NK cells, the number of surviving target cells is assessed by a fluorescent viability stain.

primary human T cells = experiment: T cell activation and cytokine secretion assay (LEGENDplex); type: cell-based
Description: Peripheral blood mononuclear cells (PBMCs) were isolated from whole blood by ficoll density separation. Briefly, blood was diluted 1:2 with 0.5 mM EDTA solution in PBS, loaded onto a Ficoll-filled Leucosep tube (Greiner Bio-One), and centrifuged for 20 minutes at 1000×g. After centrifugation, the leukocyte/PBMC layer on top of the separation medium was collected and sequentially washed three times with 0.5 mM EDTA solution in PBS. T cells were isolated from PBMCs using magnetic bead-based separation following vendor specification, e.g., Biolegend MojoSort Human CD4/CD8 Naïve T Cell Isolation Kit protocol. In brief, the PBMCs were labeled with biotinylated antibodies against cell surface receptors for cells not in the population of interest. The labeled cells are then captured by streptavidin-coated magnetic beads and removed by magnetic incubation. The uncaptured cells that flow through the magnetic separation are predominantly comprised of the population of interest, in this instance CD3+ T cells. T cells were stained with a 5 μM solution of Tag-it Violet™ dye (BioLegend) for 20 minutes protected from light. The stain was quenched by incubating the cells in cell culture medium containing 10% FBS (complete media). Stained cells were plated on tissue culture plates and sub-maximally activated with concanavalin A (con A) added to the culture medium. Cells were plated at 0.1×10^6 cells well. […] Cells were collected at 24, 48, and 72 hrs. Supernatants were collected at 24, 48, and 72 hrs and cytokine secretion was analyzed by flow cytometry using a LEGENDplex assay (BioLegend). In brief, following manufacturer's protocol, beads pre-coated with antibodies specific to various cytokines were incubated with cell supernatant. […] The beads were then stained and the captured cytokine composition assessed by flow cytometry.

[2] = test system: macrophages differentiated from CD14+ monocytes; experiment: Macrophage activation and cytokine secretion assay; type: cell-based, human; conditions: dilutions from 10 μM to 1 nM
Description: Peripheral blood mononuclear cells (PBMCs) were isolated from whole blood by ficoll density separation. Briefly, blood was diluted 1:2 with 0.5 mM EDTA solution in PBS, loaded onto a Ficoll-filled Leucosep tube (Greiner Bio-One), and centrifuged for 20 minutes at 1000×g. After centrifugation, the leukocyte/PBMC layer was collected and sequentially washed three times with 0.5 mM EDTA solution in PBS.
Monocytes (CD14+) were isolated from PBMCs using magnetic bead-based separation following vendor specifications, e.g., Biolegend MojoSort Human CD14 Selection Kit protocol. In brief, PBMCs were labeled with biotinylated antibodies against cell surface receptors for cells not in the population of interest. The labeled cells are then captured by streptavidin-coated magnetic beads and removed by magnetic incubation. The uncaptured cells that flow through the magnetic separation are predominantly comprised of the population of interest, in this case CD14+ monocytes.
Monocytes were differentiated into macrophages by culturing in DMEM complete medium containing 10% FBS for seven days in the presence of 40 ng/mL human M-CSF. Media was changed on day 1 and day 4. On Day 4, macrophages were polarized to various subtypes as follows: M0—incubated with 40 ng/mL M-CSF; M1—cultured with 40 ng/mL M-CSF, 20 ng/mL IFNγ, and 50 ng/mL LPS; M2—incubated with 40 ng/mL M-CSF, 20 ng/mL 1L4, 20 ng/mL IL10, and 20 ng/mL TFGB. On day 7, cells were harvested by scraping them from the tissue culture plates and transferring them to 96-well plates.
Supernatants were collected at 24, 48, and 72 hrs and cytokine secretion was analyzed by flow cytometry using a LEGENDplex assay (BioLegend). In brief, following manufacturer's protocol, beads that are pre-coated with antibodies specific to various cytokines were incubated with cell supernatant. […] The beads were then stained and the captured cytokine composition assessed by flow cytometry.
M1 macrophage polarization is defined as increase in production of IL-12, TNF, IL-6, IL-8, IL-1B, MCP-1 and CCL2. Additionally, markers of M1 polarization that can be detected by RNA include Nos2. M2 polarization is defined as increase in IL-10 and/or a decrease in the M1 cytokines listed above. Additionally, markers of M2 polarization that can be detected by RNA include Arg1, IDO, PF4, CCL24, IL10, and IL4Ralpha.

[3] = test system: T cells in the lymph node; experiment: Lymph node remodeling by hock injection, flow cytometry of lymph node cells; type: in vivo, C57BL/6J mice; conditions: hock injection of Haloperidol 48.5 nmol followed by quinpirole 0.1 nmol; 24 hours
Description: 24 hours after hock injection, brachial lymph nodes (LN) were harvested in culture medium (RPMI+10% FBS). LNs were transferred to 24-well tissue culture plates containing 0.5 mL LN digestion buffer (RPMI, 2% FBS, collagenase D (3.3 mg/mL), and DNAse I (40 ug/mL)). LN capsules were manually opened with two syringe (26G) needles and the LNs were incubated in digestion buffer for 15 minutes. Digested LNs were filtered with a 40 μNA cell strainer and tissues were smashed with the plunger of a 5 mL syringe. Collected cells were washed in culture medium and plated for assays. Total number of viable cells were assessed by staining with viability dye eFluor 780 (eBioscience). Surface markers of various immune cell subsets were analyzed by staining the cells with antibodies for cell identity (CD3, CD4, CD8, CD19), for the inflammatory marker CD69, and the migratory marker CCR7. The cells were then assayed by flow cytometry.

[4] = T cells from two different donors, multiple time points
[5] = low sub-nanomolar concentrations, 72 hours post treatment

Molecule: CC(C)(C)NCC(O)COc1cccc2c1CC(O)C(O)C2 (stereo not drawn) [nadolol]
- ADCC of NK cells treated with metaproterenol alone relative to NK cells pre-treated with this antagonist prior to the agonist [1]: significantly less ADCC

Molecule: CC(C)NCC(O)c1cc(O)cc(O)c1 (stereo not drawn) [metaproterenol]
- ADCC induced by agonist-treated NK cells, compared with NK cells pre-treated with a beta adrenergic antagonist prior to the agonist ([1]; surviving target cells by fluorescent viability stain): significantly less ADCC

Molecule: neuropeptide Y
- cytokine IL-4 (primary human T cells; sub-nanomolar concentrations, 48 hours post-treatment): increase

Molecule: CC(C)NCC(O)c1ccc(O)c(O)c1 (stereo not drawn) [isoproterenol]
- transcript of NOS2 ([2]; M1 marker): decrease
- transcripts for Arg1 ([2]; M2 marker): increase
- transcripts for IL-10 ([2]; M2 marker): increase
- macrophage polarization (M1 or M2 phenotype) [2]: polarized toward an M2 phenotype
- production of pro-inflammatory cytokine IFNγ (primary human T cells; T cells from two different donors, 72 hours (FIG. 6A)): decreased
- production of pro-inflammatory cytokine TNFα (primary human T cells; T cells from two different donors, 72 hours (FIG. 6B)): decreased
- production of pro-inflammatory cytokine IL-10 (primary human T cells; T cells from two different donors, 72 hours (FIG. 6C)): decreased
- amount of pro-inflammatory cytokine IL-10 (primary human T cells; [4]): decrease
- production of pro-inflammatory cytokine IFNγ (primary human T cells; [4]): decrease
- production of pro-inflammatory cytokine TNFα (primary human T cells; [4]): decrease

Molecule: NCCc1ccc(O)c(O)c1 [dopamine]
- production of the pro-survival cytokine IL-2 (primary human T cells; 24 and 48 hours post stimulation, nanomolar concentrations): increase
- production of the pro-inflammatory cytokine IL-5 (primary human T cells; [5]): increase
- production of the pro-inflammatory cytokine IL-6 (primary human T cells; [5]): increase
- production of the pro-inflammatory cytokine IL-10 (primary human T cells; [5]): increase
- production of the pro-inflammatory cytokine IL-13 (primary human T cells; [5]): increase
- production of the pro-inflammatory cytokine IFNγ (primary human T cells; low sub-nanomolar concentrations, 72 hours post treatment, con A sub-maximally activated T cells): increase

Molecule: O=C(CCCN1CCC(O)(c2ccc(Cl)cc2)CC1)c1ccc(F)cc1 [haloperidol]
- effect of antagonist pre-treatment on the quinpirole-induced increase of CCR7+ T cells in the lymph node [3]: inhibited

Molecule: CC(C)NCC(O)COc1cccc2ccccc12 (stereo not drawn) [propranolol]
- ADCC of NK cells treated with metaproterenol alone relative to NK cells pre-treated with this antagonist prior to the agonist [1]: significantly less ADCC
